Patent publication US7618787B2, “Method of screening compound capable of accelerating or inhibiting apoptosis, apoptosis accelarator and apoptosis inhibitor” (Hisamitsu Pharmaceutical Co., Inc., priority 2004, dated 2009)

Legend:
[1] = test system: p53; test: p53 protein level (stabilization) by immunoblot in cotransfected COS7 cells; type: cell-based; settings: COS7 cotransfection (FIG. 14, 15)
Method: (§1) Cells were transiently transfected with a total of 2 μg of expression plasmids. After 48 hours of the transfection, the cells were washed with ice-cold PBS and suspended in lysis buffer (pH 8.0; which contained 25 mM Tris-Cl, 137 mM sodium chloride, 1% Triton X-100, 1 mM phenylmethylsulfonyl fluoride (PMSF), and protease inhibitor mix (Roche Molecular Biochemicals)), followed by brief sonication. After centrifugation at 15000 rpm for 10 minutes, the supernatant was collected and assayed for protein concentrations by the Bradford assay (Bio-Rad). Equal amounts of lysates (protein amount: 50 μg) from the whole cells were denatured by boiling in Laemmli SDS-sample buffer, then separated on 10% SDS-polyacrylamide gel (SDS-PAGE), and transferred at room temperature for 1 hour to polyvinylidene difluoride (PVDF) membranes (Immobilon-P; Millipore) in Tris-glycine buffer containing 10% methanol. The membranes were blocked at room temperature for 1 hour with Tris-buffered saline (TBS-T) containing 5% skim milk and 0.1% Tween 20.
As previously reported, some protein kinases (e.g., c-Abl and PKCδ) that interact with p73 can stabilize p73. To confirm whether IKK-α influenced the stabilization of p73, COS7 cells were transfected with a constant amount of HA-p73α expression plasmid together with or without varying amounts of IKK-α expression plasmids and examined for HA-p73α protein levels. […]

[2] = test system: p73; test: Luciferase reporter assay, p73-dependent transcriptional activation in H1299 cells; type: cell-based, human; settings: H1299, coexpression with HA-p73α or HA-p73β (FIG. 20, 21, 23)
Method: H1299 cells deficient in p53 were seeded at a density of 5×10^4 cells/well onto a 12-well tissue culture dish and transiently transfected with 100 ng of luciferase reporter construct (which carried a p53/p73-responsive element derived from a p21^WAF1, Bax, or MDM2 promoter), 10 ng of pRL-TK Renilla luciferase cDNA, and 25 ng of given expression plasmid (p53, HA-p73α, or HA-p73β) together with or without varying amounts of IKK-α or FLAG-IKK-β expression plasmids. The total amount of DNA per transfection was kept constant (510 ng) with a pcDNA3 empty plasmid. After 48 hours from the transfection, the cells were washed twice with ice-cold PBS and suspended in passive lysis buffer (Promega). Both firefly and Renilla luciferase activities were assayed by use of dual-luciferase reporter assay system (Promega) according to the instruction. […] intensity was measured with TD-20 luminometer (Turner Design). The firefly luciferase signal was normalized based on the Renilla luciferase signal. Results obtained from at least 3 transfections were indicated by mean value±standard deviation.
To explore the functional implication of interaction between IKK-α and p73, the effect of IKK-α on p73-mediated transcriptional activation was first examined. H1299 cells deficient in p53 were transfected with a HA-p73α or HA-p73β expression plasmid and a luciferase reporter construct under the control of a p21^WAF1, Bax, or MDM2 promoter together with or without varying amounts of IKK-α expression plasmids. […] By contrast, increase in p53-responsive reporter gene activity was not induced by IKK-α (FIG. 22). To examine the specificity of p73-dependent transcriptional activation mediated by IKK-α, whether IKK-β enhanced p73 transcriptional activity to p53/p73-responsive promoters was confirmed.

[3] = biological target: T1, HA-p73α (Homo sapiens, UniProt O15350); test: Ubiquitination assay in COS7 cells; type: cell-based; settings: COS7, HA-p73α and HA-ubiquitin, MG-132 (FIG. 18, 19)
T1 construct: expressed in transfected cells; host or cells: COS7
T1 sequence (O15350 1-636): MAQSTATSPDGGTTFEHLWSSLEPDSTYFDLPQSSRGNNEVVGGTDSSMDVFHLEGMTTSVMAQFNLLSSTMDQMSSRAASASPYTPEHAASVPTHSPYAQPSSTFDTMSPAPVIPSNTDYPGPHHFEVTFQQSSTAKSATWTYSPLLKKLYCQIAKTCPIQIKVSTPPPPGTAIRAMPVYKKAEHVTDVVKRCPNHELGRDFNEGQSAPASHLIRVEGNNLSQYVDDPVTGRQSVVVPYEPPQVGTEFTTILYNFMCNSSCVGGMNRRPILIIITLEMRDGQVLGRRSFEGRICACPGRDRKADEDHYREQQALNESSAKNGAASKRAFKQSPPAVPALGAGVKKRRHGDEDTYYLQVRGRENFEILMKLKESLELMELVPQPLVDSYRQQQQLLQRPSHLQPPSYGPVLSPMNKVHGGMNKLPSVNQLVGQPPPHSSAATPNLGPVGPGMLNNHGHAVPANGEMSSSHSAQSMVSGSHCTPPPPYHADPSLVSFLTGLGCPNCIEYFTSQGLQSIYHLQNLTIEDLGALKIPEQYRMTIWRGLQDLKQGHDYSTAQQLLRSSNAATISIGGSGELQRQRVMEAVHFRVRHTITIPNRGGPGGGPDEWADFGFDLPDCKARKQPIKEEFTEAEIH
Method: COS7 cells were transiently transfected with a constant amount of expression plasmids encoding HA-p73α and HA-Ub in the presence or absence of varying amounts of IKK-α expression plasmids. After […] from the transfection, the cells were exposed for 6 hours to a proteasome inhibitor MG-132 (final concentration: 20 μM), and lysates from the whole cells were first subjected to immunoprecipitation with an anti-p73 monoclonal antibody and then to immunoblot using an anti-HA monoclonal antibody (12CA5; Roche Molecular Biochemicals) to analyze ubiquitination levels.
As described by Lee, C.-W. et al., Oncogene 18: 4171-4181 (1999), the steady-state level of p73 was regulated at least partially by the proteolytic process through the ubiquitin-proteasome pathway. Whether IKK-α inhibited the ubiquitination of p73 was investigated. COS7 cells were transfected with expression plasmids for HA-p73α and HA-ubiquitin together with or without varying amounts of IKK-α or FLAG-IKK-β expression plasmids. After 48 hours of the transfection, lysates from the whole cells were analyzed by immunoprecipitation and immunoblot and examined for the presence of p73α containing HA-ubiquitin.

[4] = biological target: T2, p73 (Homo sapiens, UniProt O15350); test: p73 protein level (stabilization) by immunoblot in cotransfected COS7 cells; type: cell-based; settings: COS7 cotransfection (FIG. 14, 15, 29)
T2 construct: expressed in transfected cells; host or cells: COS7
T2 sequence (O15350 1-636): T1 sequence (O15350 1-636)
Method: as §1
As previously reported, some protein kinases (e.g., c-Abl and PKCδ) that interact with p73 can stabilize p73. To confirm whether IKK-α influenced the stabilization of p73, COS7 cells were transfected with a constant amount of HA-p73α expression plasmid together with or without varying amounts of IKK-α expression plasmids and examined for HA-p73α protein levels. […] Next, whether IKK-β influenced the stabilization of p73 and p53 was investigated by transient transfection.

[5] = test system: H1299 cells; test: Apoptosis assay (trypan blue / Red-Gal double staining), p73α-dependent; type: cell-based, human; settings: H1299, coexpression with HA-p73α, 48 hours (FIG. 25-27)
Method: To detect apoptosis via p73α and IKK overexpression, H1299 cells were seeded at a density of 1.5×10^4 cells/well onto a 6-well tissue culture dish. Next day, the cells were transiently transfected with 50 ng of β-galactosidase expression plasmid and 50 ng of HA-p73α expression plasmid in the presence or absence of varying amounts of IKK-α or IKK-β expression vectors (100, 200, or 400 ng). After 48 hours of the transfection, the cells were washed with ice-cold PBS and stained at room temperature for 10 minutes with 0.4% trypan blue (PBS solution). Then, the cells were washed twice with PBS, then fixed for 10 minutes in PBS containing 2.5% glutaraldehyde, 1 mM magnesium chloride, and 2 mM EGTA, and stained for 2 hours with Red-Gal (Research Organics) according to the method described in Bayon, Y. et al., Mol. Cell. Biol. 23: 1061-1074 (2003). Red-Gal was used as a marker for visualizing the transfected cells to evaluate the degree of apoptosis occurring in the transfectants. […] Results were indicated by an average of three independent transfections (each performed three times or more).
Potential effect(s) of IKK-α on p73-dependent biological functions such as the regulation of apoptosis was examined. […] After 48 hours of the transfection, the cells were subjected to double staining with trypan blue (nonviable cells) and Red-Gal (transfected cells), and the number of purple cells was scored.

## FLAG-IKK-β: IκB kinase catalytic subunit IKK-β (IKK-2), FLAG-tagged, expressed from plasmid as comparison
[1]
  stabilization of p53: no detectable effect on the stabilization of both p73 and p53
[2]
  p73-dependent transcriptional activation of p21WAF1, Bax, MDM2 promoter reporters: no remarkable change in p73-dependent transcriptional activation
[3]
  amount of ubiquitinated p73α: inhibited the ubiquitination of p73α to a somewhat lesser degree
[4]
  amount of HA-p73α: no detectable effect on the stabilization of both p73 and p53
[5]
  number of cells undergoing p73α-dependent apoptosis: no remarkable effect on p73α-dependent apoptosis
